We go through 36 molecules from patent publication US20120094995A1, “2-AZA-BICYCLO[2.2.1]HEPTANE COMPOUNDS AND USES THEREOF” (ASTRAZENECA AB, priority 2009, published 2012).

Some results are limits rather than exact numbers.

In general, IC50 refers to the midpoint of a concentration-inhibition curve.

For the first experiment, the target named is T1, human GlyT1b (Homo sapiens, UniProt P48067).
T1 construct: expressed in transfected cells
T1 sequence (P48067 1-652 isoform P48067-3): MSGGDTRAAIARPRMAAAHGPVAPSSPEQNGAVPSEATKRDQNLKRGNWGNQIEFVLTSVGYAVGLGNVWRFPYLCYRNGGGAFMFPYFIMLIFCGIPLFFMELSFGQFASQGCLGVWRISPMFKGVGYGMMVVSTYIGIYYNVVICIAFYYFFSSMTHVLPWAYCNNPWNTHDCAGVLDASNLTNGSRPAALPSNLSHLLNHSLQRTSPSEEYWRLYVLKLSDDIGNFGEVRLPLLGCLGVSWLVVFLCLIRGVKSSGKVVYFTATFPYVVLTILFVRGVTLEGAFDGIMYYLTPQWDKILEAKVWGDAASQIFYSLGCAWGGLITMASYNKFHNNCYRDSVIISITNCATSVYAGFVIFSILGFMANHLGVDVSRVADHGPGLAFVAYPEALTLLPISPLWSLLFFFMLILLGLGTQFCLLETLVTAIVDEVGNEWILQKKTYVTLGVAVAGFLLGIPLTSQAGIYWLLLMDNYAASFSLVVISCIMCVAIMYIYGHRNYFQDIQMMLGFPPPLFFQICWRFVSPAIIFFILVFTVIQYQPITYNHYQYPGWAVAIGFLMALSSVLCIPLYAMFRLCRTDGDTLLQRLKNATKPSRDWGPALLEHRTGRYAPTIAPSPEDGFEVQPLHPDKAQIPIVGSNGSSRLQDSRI
The experiment can be described thus: [3H] Glycine Uptake Assay (SPA) in recombinant hGlyT1b-CHO cells. It counts as cell-based. Particulars: Table 1. The procedure: A. [3H] Glycine Uptake Assay
Preparation of recombinant human GlyT1b-CHO cells (hGlyT1b-CHO). The human GlyT1b CDS (GC002087, NM_006934) was cloned downstream of a CMV promoter in a bicistronic expression vector containing a hygromycin B resistance gene. CHO-K1 cells (ATCC) were transfected with the recombinant vector containing GlyT1b using Lipofectamine 2000 (Invitrogen) and cultured in Ham's/F12 media supplemented with 10% fetal bovine serum, 2 mM L-glutamine at 37° C., 5% CO2, 90% humidity. Twenty-four hours after transfection, cells were diluted and switched to media containing 0.5 mg/ml hygromycin B. Antibiotic resistant cells were obtained after 21 days of culture in the presence of hygromycin B. Clonal stable cell lines were isolated by FACS single cell deposition into 96-well plates.
Cells used were Recombinant hGlyT1b/CHO. These cells were cultured in cell culture medium (Ham's/F12 (Modified) (Mediatech, 10-080-CM), containing 10% FBS, 2 mM L-glutamine (Invitrogen 25030-149) and 0.5 mg/mL hygromycin B (Invitrogen, 10687-010)) in 175 cm^2 flasks until near confluence before use in the assay.
Cell medium in a cell culture flask containing near confluent cells was removed and 5 mL of cell stripper was added to submerge all cells on the surface of the culture flask. Cell stripper was removed immediately and the flask incubated in a 37° C. incubator for ˜5 min. Cells were shaken loose and suspended in 5 mL of PBS. After splitting cells to initiate a new flask(s), the cells remaining were collected by centrifugation, counted, and resuspended in assay buffer to a density of ˜2 million/mL. The cell suspension was kept at room temperature before use. The assays buffer was 10 mM HEPES, pH 7.4, containing 150 mM NaCl, 5 mM KCl, 1.5 mM CaCl2, 1.5 mM MgCl2, 0.45 mg/mL L-alanine (added fresh), and 1.8 mg/mL D-glucose (added fresh).
WGA PTV beads were suspended in assay buffer (2 mg/ml) containing 60 nM [^3H]Glycine (PerkinElmer (NET-004, [2-^3H]Glycine, 53.3 Ci/mmol, 1 mCi/mL)) and 20 μM unlabeled glycine and the suspension was kept at room temperature before assay.
To the wells of an OptiPlate, 2 μl DMSO containing a test compound was spotted. This was followed by addition of 98 μl of cell suspension (˜1 million/ml final). After incubating cells with compound for ˜15 min, 100 μl of the SPA (200 μg/well final) and isotope mixture (30 nM isotope with 10 μM cold glycine, final) was added to initiate the glycine uptake. At 2 h, the plate was read on a TopCount to quantify SPA counts.
Consider `CN1C2CCC1(C(NC(=O)c1ccnc(Cl)c1Cl)c1ccccc1)CC2` (single isomer, unassigned) [Example 15, (R*)-2,3-dichloro-N-((7-methyl-7-azabicyclo[2.2.1]heptan-1-yl)(phenyl)methyl)isonicotinamide], for which the half-inhibitory concentration (IC50) stood at 210 nM.

Turning to `CN1C2CCC1(C(NC(=O)c1cccc(C(F)(F)F)c1Cl)c1ccccc1)CC2` (stereo not drawn) [Example 17, 2-chloro-N-((7-methyl-7-azabicyclo[2.2.1]heptan-1-yl)(phenyl)methyl)-3-(trifluoromethyl)benzamide], the IC50 amounted to 17.9 nM. `CSc1ncccc1C(=O)NC(c1ccccc1)C12CCC(CC1)N2C` (single isomer, unassigned) [Example 2, (R*)—N-((7-methyl-7-azabicyclo[2.2.1]heptan-1-y)(phenyl)methyl)-2-(methylthio)nicotinamide]: the IC50 turned out to be 168 nM. With `COCCN1C2CCC1(C(NC(=O)c1c(C)cccc1C)c1ccncc1)CC2` (single isomer, unassigned) [Example 6, (R*)—N-((7-(2-methoxyethyl)-7-azabicyclo[2.2.1]heptan-1-yl)(pyridin-4-yl)methyl)-2,6-dimethylbenzamide], the IC50 is 26 nM.

In the case of `Cc1cccc(F)c1C(=O)NC(c1ccccc1)C12CCC(CC1)N2C` (single isomer, unassigned) [Example 7, 2-fluoro-6-methyl-N-((7-methyl-7-azabicyclo[2.2.1]heptan-1-yl)(phenyl)methyl)benzamide], the IC50 was 62 nM. Still for that read-out and setting: for `Cc1ccc(C(NC(=O)c2c(C)cccc2C)C23CCC(CC2)N3C)o1` (stereo not drawn) [Example 9, 2,6-dimethyl-N-((7-methyl-7-azabicyclo[2.2.1]heptan-1-yl)(5-methylfuran-2-yl)methyl)benzamide] the value was 98 nM.

Still in this experiment, the particulars now being: Table 2, unit from table title.
With `COCCCN1C2CCC1([C@H](NC(=O)c1c(C)cccc1C)c1ccccc1)CC2` [Example 28], the half-inhibitory concentration (IC50) came to 12 nM.

On to `Cc1cccc(C)c1C(=O)NC(c1ccc(Br)cc1)C12CCC(CC1)N2C` (stereo not drawn) [Example 90], for which the IC50 turned out to be 4 nM.

For `Cc1cccc(C)c1C(=O)NC(c1ccc(Br)cc1)C12CCC(CC1)N2` (stereo not drawn) [Example 89], the IC50 is 68 nM. As for `Cc1ccc(C(NC(=O)c2c(C)cccc2C)C23CCC(CC2)N3C)o1` (single isomer, unassigned) [Example 87], the IC50 came to 14 nM.

As to `CSc1ncccc1C(=O)NC(c1ccncc1)C12CCC(CC1)N2C1CCC1` (single isomer, unassigned) [Example 101], the half-maximal inhibitory concentration (IC50) worked out at 160 nM. Same read-out and setting: for `Cc1cccc(C(NC(=O)c2c(C)cccc2C)C23CCC(CC2)N3C)c1` (stereo not drawn) [Example 84] the value was 26 nM. The same measure, in the same setting: for `Cc1ccc(F)cc1C(=O)NC(c1ccccc1)C12CCC(CC1)N2C` (single isomer, unassigned) [Example 64] the value was 125 nM. Regarding `Cc1cccc(C)c1C(=O)NC(c1cccc(F)c1)C12CCC(CC1)N2C` (single isomer, unassigned) [Example 45], the IC50 is 175 nM. With `Cc1cc(F)cc(C)c1C(=O)NC(c1ccccc1)C12CCC(CC1)N2C` (stereo not drawn) [Example 82], the IC50 was 4 nM. Still for that read-out and setting: then `CC(=O)NCCN1C2CCC1([C@H](NC(=O)c1c(C)cccc1C)c1ccccc1)CC2` [Example 42], with 6 nM. As for `Cc1c(F)cccc1C(=O)NC(c1ccccc1)C12CCC(CC1)N2C` (single isomer, unassigned) [Example 63], the 50% inhibitory concentration (IC50) stood at 76 nM.

Turning to `Cc1ccc(C(NC(=O)c2c(C)cccc2C)C23CCC(CC2)N3C)o1` (single isomer, unassigned) [Example 91], the IC50 amounted to 344 nM. Same read-out and setting: then `Cc1ccc(C(NC(=O)c2c(C)cccc2C)C23CCC(CC2)N3C)cn1` (stereo not drawn) [Example 68], with 129 nM; and `CCN1C2CCC1(C(NC(=O)c1cccnc1SC)c1ccccc1)CC2` (stereo not drawn) [Example 51], with 107 nM. Same read-out and setting: for `CCc1ccccc1C(=O)N[C@H](c1ccccc1)C12CCC(CC1)N2CCOC` [Example 95] the value was 68 nM. Still for that read-out and setting: then `Cc1cccc(C)c1C(=O)NC(c1cccnc1)C12CCC(CC1)N2C` (stereo not drawn) [Example 65], with 31 nM.

As to `CSc1ncccc1C(=O)NC(c1ccccc1)C12CCC(CC1)N2C(C)C` (single isomer, unassigned) [Example 53], the concentration for half-maximal inhibition (IC50) amounted to 24 nM.

Regarding `Cc1cccc(C)c1C(=O)NC(c1cccnc1)C12CCC(CC1)N2C` (single isomer, unassigned) [Example 74], the IC50 is below 3 nM. Same read-out and setting: for `Cc1cccc(C)c1C(=O)NC(c1cccc(C(=O)N(C)C)c1)C12CCC(CC1)N2C` (stereo not drawn) [Example 88] the value was 57 nM; for `Cc1cccc(Cl)c1C(=O)NC(c1ccccc1)C12CCC(CC1)N2C` (stereo not drawn) [Example 67], 6 nM. On the same count and under the same terms, then `Cc1cccc(C)c1C(=O)NC(c1ccc(C#N)cc1)C12CCC(CC1)N2C` (stereo not drawn) [Example 93], with 226 nM. The same measure, in the same setting: then `CSc1ncccc1C(=O)NC(c1ccccc1)C12CCC(CC1)N2C1CCC1` (stereo not drawn) [Example 44], with 243 nM; and `Cc1cccc(C)c1C(=O)NC(c1ccncc1)C12CCC(CC1)N2C` (stereo not drawn) [Example 37], with 6 nM.

As for `Cc1cccc(C)c1C(=O)N[C@H](c1ccccc1)C12CCC(CC1)N2CC1CCC1` [Example 29], the half-maximal inhibitory concentration (IC50) is 9 nM.

In the case of `Cc1cccc(C)c1C(=O)NC(c1ccccc1)C12CCC(CC1)N2CC(C)C` (stereo not drawn) [Example 22], the IC50 is 13 nM. For `Cc1cccc(C)c1C(=O)N[C@H](c1cncnc1)C12CCC(CC1)N2C` [Example 72], the half-maximal inhibitory concentration (IC50) was determined as 148 nM. For `Cc1cccc(C)c1C(=O)N[C@H](c1ccccc1)C12CCC(CC1)N2Cc1cnn(C)c1` [Example 61], the IC50 amounted to 12 nM. Same read-out and setting: then `Cc1cccc(C)c1C(=O)NC(c1cccc(F)c1)C12CCC(CC1)N2` (single isomer, unassigned) [Example 75], with 7 nM; and `CSc1ncccc1C(=O)NC(c1ccccc1)C12CCC(CC1)N2C(C)C` (stereo not drawn) [Example 48], with 23 nM.

For `Cc1ccc(C(NC(=O)c2c(C)cccc2C)C23CCC(CC2)N3C)cn1` (single isomer, unassigned) [Example 77], the 50% inhibitory concentration (IC50) is 71 nM.
